In brackets after ≈: the same amount, converted by molar mass. Read-outs that look alike come from different tables or passages of the source.
How the values were obtained:
Type in all cases: cell-based
[1] = tested on: Escherichia coli ATCC 25922; experiment: Minimum inhibitory concentration, broth micro-dilution (CLSI), E. coli; settings: 35° C., 22 hours; for MIC: Escherichia coli, ATCC25922, 22 h
Experimental: Cells were inoculated onto plates of Trypyticase Soy Agar or Luria Agar respectively and grown at 35° C. for 20 hours. Inocula suspensions were prepared by scraping cells into 1 mL of testing media (cation adjusted Mueller Hinton Broth supplemented with 0.002% v/v Tween-80) and diluting to a final OD600 nm of 0.01.
(§1) Test compounds were prepared in DMSO at a concentration of 10 mg/mL. […] In protocol 2, the compound stocks were diluted into testing media at a concentration of 4 μg/mL and serial 2-fold dilutions were made in the same media, in 96-well U bottom microtiter dishes, for a total of 10 compound concentrations. In protocol 3, compound stocks were diluted into testing media at a concentration of 0.5 μg/mL, with serial 2-fold dilutions conducted as described above. […] Inocula suspensions were added to the 2-fold serial dilutions of test compounds to a final density of OD OD600 nm of 0.0005 and incubated at 35° C. for 22 hours.

[2] = tested on: Methicillin Resistant Staphylococcus aureus strain USA 300, NRS384; experiment: Minimum inhibitory concentration, broth micro-dilution (CLSI), S. aureus; settings: 35° C., 22 hours; for MIC: Staphylococcus aureus, MRSA / NRS 384 / USA300, 22 h
Experimental: (§2) In vitro antimicrobial activity of each compound was determined by measuring minimal inhibitor concentrations (MICs) using the broth micro-dilution technique as approved by the Clinical and Laboratory Standards Institute (CLSI) (Methods for Dilution Antimicrobial Susceptibility Tests for Bacteria that Grow Aerobically; Approved Standard—Eighth Edition. CLSI document M07-A8. Wayne, Pa.: Clinical and Laboratory Standards; 2009). Antibacterial activity was measure against three strains of bacteria: a Methicillin Resistant Staphylococcus aureus strain USA 300, NRS384 (S. aureus); a strain of Escherichia coli MC4100 harboring the IMP4213 (E. coli IMP), which results in increased outer-membrane permeability (B Martin and Silhavy T. Imp/OstA is required for cell envelope biogenesis in Escherichia coli. (2002) Molecular Microbiology, 45(5), 1289-1302), and Escherichia coli ATCC 25922 (E. coli), a clinically relevant Gram-negative strain. Cells were inoculated onto plates of Trypyticase Soy Agar or Luria Agar respectively and grown at 35° C. for 20 hours. Inocula suspensions were prepared by scraping cells into 1 mL of testing media (cation adjusted Mueller Hinton Broth supplemented with 0.002% v/v Tween-80) and diluting to a final OD600 nm of 0.01.
as §1

[3] = tested on: Escherichia coli MC4100 harboring the IMP4213 (E. coli IMP); experiment: microbe, parasite or virus in culture; settings: 35° C., 22 hours; for MIC (μg/mL) E. coli IMP: E. coli MC4100 IMP4213, increased outer-membrane permeability; for MIC: Escherichia coli, 22 h, read-out: MIC (μg/mL) E. coli IMP, E. coli MC4100 IMP4213, increased outer-membrane permeability
Experimental: as §2, §1

[4] = E. coli ATCC 25922, read-out: MIC (μg/mL) E. coli
[5] = MRSA USA 300 NRS384, read-out: MIC (μg/mL) S. aureus

Row | SMILES | MIC (μg/mL) E. coli ([1]; E. coli ATCC 25922) [µg/mL] | MIC (μg/mL) S. aureus ([2]; MRSA USA 300 NRS384) [µg/mL] | MIC (μg/mL) E. coli IMP [3] [µg/mL] | MIC [1, 4] [µg/mL] | MIC [2, 5] [µg/mL] | MIC [3] [µg/mL] | MIC ([1]; read-out: MIC (μg/mL) E. coli, E. coli ATCC 25922) [µg/mL] | MIC ([2]; read-out: MIC (μg/mL) S. aureus, MRSA USA 300 NRS384) [µg/mL]
1 | Cc1cc(C2CC2c2ccccc2)ccc1C(=O)N[C@@H](CCN)C(=O)N(C)[C@@H]1C(=O)N[C@@H](C)C(=O)N[C@H](C(=O)NCC#N)Cc2ccc(OCCN)c(c2)-c2cc1ccc2OCCN (mixture of isomers) [Compound 439] | 0.5 | 0.047 | 0.0078 | – | – | – | – | –
2 | CCCCc1ccc(NC(=O)CC(CCN)C(=O)N(C)[C@@H]2C(=O)N[C@@H](C)C(=O)N[C@H](C(=O)NCC#N)Cc3ccc(OCCN)c(c3)-c3cc2ccc3OCCN)c(C)c1 (mixture of isomers) [Compound 456] | – | – | – | 64 | 0.25 | 0.5 | – | –
3 | C[C@@H]1NC(=O)[C@@H](N(C)C(=O)[C@H](CCCCN)NC(=O)c2ccc(-c3ccc(Cl)cc3)cc2)c2ccc(OCC(O)CN)c(c2)-c2cc(ccc2OCC(O)CN)C[C@@H](C(=O)NCC#N)NC1=O (mixture of isomers) [Compound 515] | – | – | – | 4 | 0.094 | 0.063 | – | –
4 | CCCCCCCCCC(=O)N[C@H](C(=O)N[C@@H](CCN)C(=O)N(C)[C@@H]1C(=O)N[C@@H](C)C(=O)N[C@H](C(=O)NCC#N)Cc2ccc(OCCN)c(c2)-c2cc1ccc2OCCN)C(C)O (single isomer, unassigned) [Compound 357-P1] | – | – | – | – | – | 0.5 (≈ 0.56 µM) | 64 (≈ 71.7 µM) | 0.5 (≈ 0.56 µM)
5 | CCCCCCCc1ccc(C(=O)NC(CCNC)C(=O)N(C)[C@@H]2C(=O)N[C@@H](C)C(=O)N[C@H](C(=O)NCC#N)Cc3ccc(OCCN)c(c3)-c3cc2ccc3OCCN)c(C)c1 (single isomer, unassigned) [Compound 490-P1] | 0.75 (≈ 0.864 µM) | 0.073 (≈ 0.0841 µM) | – | – | – | 0.068 (≈ 0.0783 µM) | – | –
6 | CCCCCCCc1ccc(C(=O)NC(CCNC)C(=O)N(C)[C@@H]2C(=O)N[C@@H](C)C(=O)N[C@H](C(=O)NCC#N)Cc3ccc(OCCN)c(c3)-c3cc2ccc3OCCN)c(C)c1 (single isomer, unassigned) [Compound 490-P2] | 8 (≈ 9.22 µM) | >0.50 | >0.13 | – | – | – | – | –
7 | CCCCCCCCCCCNC(=O)C(CCN)C(=O)N(C)[C@@H]1C(=O)N[C@@H](C)C(=O)N[C@H](C(=O)NCC#N)Cc2ccc(OCCN)c(c2)-c2cc1ccc2OCCN (single isomer, unassigned) [Compound 497-P1] | 2 (≈ 2.44 µM) | 0.063 (≈ 0.0768 µM) | 0.016 (≈ 0.0195 µM) | – | – | – | – | –
8 | CCCCCCCCCCCNC(=O)C(CCN)C(=O)N(C)[C@@H]1C(=O)N[C@@H](C)C(=O)N[C@H](C(=O)NCC#N)Cc2ccc(OCCN)c(c2)-c2cc1ccc2OCCN (single isomer, unassigned) [Compound 497-P2] | 24 (≈ 29.3 µM) | 1 (≈ 1.22 µM) | 0.38 (≈ 0.463 µM) | – | – | – | – | –
9 | CCCCCCc1ccc(C(=O)N2CCC(N)C[C@@H]2C(=O)N(C)[C@@H]2C(=O)N[C@@H](C)C(=O)N[C@H](C(=O)NCC#N)Cc3ccc(OCCN)c(c3)-c3cc2ccc3OCCN)c(C)c1 (single isomer, unassigned) [Compound 526-1] | – | – | – | 16 (≈ 18.5 µM) | 0.19 (≈ 0.219 µM) | 0.13 (≈ 0.15 µM) | – | –
10 | CCCCCCc1ccc(C(=O)N2CCC(N)C[C@H]2C(=O)N(C)[C@@H]2C(=O)N[C@@H](C)C(=O)N[C@H](C(=O)NCC#N)Cc3ccc(OCCN)c(c3)-c3cc2ccc3OCCN)c(C)c1 (single isomer, unassigned) [Compound 526-2] | 64 (≈ 73.9 µM) | >0.5 | >0.13 | – | – | – | – | –
11 | C[C@@H]1NC(=O)[C@@H](N(C)C(=O)[C@H](CCN)NC(=O)c2ccc3c(c2)CCCC3)c2ccc(OCCN)c(c2)-c2cc(ccc2OCCN)C[C@@H](C(=O)NCC#N)NC1=O [Compound 119] | – | – | – | 16 (≈ 20.1 µM) | 1 (≈ 1.26 µM) | 0.25 (≈ 0.314 µM) | – | –
12 | C[C@@H]1NC(=O)[C@@H](N(C)C(=O)[C@H](CCN)NC(=O)c2cccc3ccccc23)c2ccc(OCCN)c(c2)-c2cc(ccc2OCCN)C[C@@H](C(=O)NCC#N)NC1=O [Compound 492] | – | 3 (≈ 3.79 µM) | – | – | 2 (≈ 2.53 µM) | – | – | –

— patent US20180327367A1, “MACROCYCLIC BROAD SPECTRUM ANTIBIOTICS” (priority 2015, published 2018)
